Test results taken from patent publication US4439434A, “Cephalosporin derivative and pharmaceutical composition containing the derivative” (Kureha Kagaku Kogyo Kabushiki Kaisha, priority 1981, dated 1984).
In brackets after ≈: the same amount, converted by molar mass.

Columns and labels:
[1] = system: ICR-JCL mouse; details: conventional cephalosporin antibiotic, route not stated; cited from earlier work
[2] = system: Escherichia coli; experiment: Effect on the intestinal bacterial colonies: Escherichia coli in feces; assay type: in vivo; details: mice, oral 500 mg/kg/day for two consecutive days, feces one day after administration
Description: (§1) Each of the cephalosporin derivatives of the invention prepared in Examples 1 to 10 was orally administered to mice (one group consisting of five female ICR mice of 6-week-old) for two consecutive days at a dose of 500 mg/kg/day.
(§2) Before and one day after the administration, feces of each mouse were collected and diluted with an anaerobic diluent (phosphoric buffer solution) of 100 times volume and the diluted feces were ground. 0.1 ml of the diluted and ground feces was smeared on each culture medium shown in Table 1 and cultured aerobically or anaerobically (according to the anaerobic glove box method) under each condition shown in Table 1 and the number of each bacterium shown in Table 1 was counted.
DHL agar aerobic, 37° C.,

[3] = system: Pseudomonas aeruginosa; experiment: Effect on the intestinal bacterial colonies: Pseudomonas aeruginosa in feces; assay type: in vivo; details: mice, oral 500 mg/kg/day for two consecutive days, feces one day after administration
Description: as §1, §2
NAC agar aerobic, 37° C.,

[4] = system: Streptococcus spp.; experiment: Effect on the intestinal bacterial colonies: Streptococcus spp. in feces; assay type: in vivo; details: mice, oral 500 mg/kg/day for two consecutive days, feces one day after administration
Description: as §1, §2
TATAC agar aerobic, 37° C.,

[5] = system: Lactobacillus acidophilus; experiment: Effect on the intestinal bacterial colonies: Lactobacillus acidophilus in feces; assay type: in vivo; details: mice, oral 500 mg/kg/day for two consecutive days, feces one day after administration
Description: as §1, §2
Lactobacillus acidophilus
LBS agar anaerobic, 37° C.,

[6] = system: Lactobacillus bifidus; experiment: Effect on the intestinal bacterial colonies: Lactobacillus bifidus in feces; assay type: in vivo; details: mice, oral 500 mg/kg/day for two consecutive days, feces one day after administration
Description: as §1, §2
BS agar anaerobic, 37° C.,

[7] = system: Bacteroides; experiment: Effect on the intestinal bacterial colonies: Bacteroides in feces; assay type: in vivo; details: mice, oral 500 mg/kg/day for two consecutive days, feces one day after administration
Description: as §1, §2
Bacteroides NBGT agar anaerobic, 37° C.,

[8] = system: Escherichia coli IFO 12734; experiment: Antibacterial activity (MIC, agar plate) against E. coli; assay type: cell-based; details: Escherichia coli IFO 12734, Mueller-Hinton agar, 37° C., 18 to 24 hours; unit assumed
Description: (§3) Antibacterial activity of each of the cephalosporin derivatives of the invention prepared in Examples 1 to 10 was examined against the following two bacteria according to the standard method of Japan Society of Chemitherapy: Escherichia coli IFO 12734 and Staphylococcus aureus IAM 1011.
(§4) Each bacterial strain was inoculated into the Mueller-Hinton's culture medium and cultured at 37° C. for 18 to 48 hours. The cultured medium was diluted so as to contain 1×10^6 cells of the bacteria per one ml, and the obtained medium was used as the bacterial specimen.
(§5) Agar plates were prepared by adding one part by weight of each solution of the cephalosporin derivative of the invention at a predetermined concentration to nine parts by weight of Mueller-Hinton's culture medium.
(§6) A loopful amount of the bacterial specimen prepared above was smeared to make a streak of about 2 cm on each agar plate prepared above and cultured at 37° C. for 18 to 24 hours.
(§7) The minimum concentration for completely inhibiting proliferation of the bacteria (referred to as MIC) was determined.

[9] = system: Staphylococcus aureus IAM 1011; experiment: Antibacterial activity (MIC, agar plate) against Staph. aureus; assay type: cell-based; details: Staphylococcus aureus IAM 1011, Mueller-Hinton agar, 37° C., 18 to 24 hours; unit assumed
Description: as §3, §4, §5, §6, §7

[10] = system: Staphylococcus aureus IAM 1011; experiment: Activation by rat liver homogenate (S-9 mix), proliferation-inhibiting circle, penicillin cup method; assay type: cell-based; details: incubated with rat liver S-9 mix, 37° C. 20 min; circle diameter relative to the starting compound
Description: As an activating enzyme of metabolism, a rat liver homogenate (S-9, manufactured by Oriental Yeast Company, Japan) was used in the following composition per 1 ml (hereinafter referred to as S-9 mix). 0.1 ml of the solution of each of the cephalosporin derivatives of the invention prepared in Examples 1 to 10 at a concentration of 100 μg/ml was mixed with 0.9 ml of S-9 mix or 0.9 ml of 0.1 M phosphoric buffer solution (as a control) and the obtained mixture was incubated at 37° C. for 20 min. with shaking. Staphylococcus aureus IAM 1011 was inoculated into a Mueller-Hinton's culture medium and cultured at 37° C. for 18 hours. The culture medium was adjusted to a cell concentration of 1×10^8 per 1 ml and mixed with 50 times by volume of Mueller-Hinton's agar culture medium to obtain an agar plate. A penicillin cup of 8 mm in diameter was placed on the agar plate prepared above, and into the cup 0.1 ml of the mixture containing the cephalosporin derivative prepared above was introduced and allowed to stand at 4° C. for 2 hours, and then cultured at 37° C. for 18 hours to measure the diameter of a circle in which the proliferation of bacteria was inhibited (proliferation-inhibiting circle). In Table 4, the proliferation-inhibiting index is shown in the ratio (%) of the diameter of the proliferation-inhibiting circle obtained by using each of the cephalosporin derivatives of the invention to that obtained by using each of the starting compound in preparing each of the cephalosporin derivatives of the invention.

| Compound | LD50 [1] | Logarithmic value of the number of bacterial cells per one g of feces, E. coli [2] | Logarithmic value of the number of bacterial cells per one g of feces, Ps. aeruginosa [3] | Logarithmic value of the number of bacterial cells per one g of feces, Strept. spp. [4] | Logarithmic value of the number of bacterial cells per one g of feces, L. acidophilus [5] | Logarithmic value of the number of bacterial cells per one g of feces, L. bifidus [6] | Logarithmic value of the number of bacterial cells per one g of feces, Bacteroides [7] | MIC E. coli [8] | MIC Staph. aureus [9] | Proliferation-inhibiting index (%) After adding S-9 mix [10] |
| --- | --- | --- | --- | --- | --- | --- | --- | --- | --- | --- |
| CC(=O)OCC1=C(C(=O)O)N2C(=O)[C@@H](NC(=O)Cc3cccs3)[C@H]2SC1 [cephalotin sodium] | about 5 g/kg | – | – | – | – | – | – | – | – | – |
| CCCCOC(=O)c1ccc(NC(=O)C2=C(COC(C)=O)CSC3C(NC(=O)Cc4cccs4)C(=O)N23)cc1 (stereo not shown) [Example 4, N-(4-carbo-n-butoxyphenyl)-7-(thienyl-2-acetamido)cephalosporanic acid amide] | – | 6.4 | < 3.0 | 6.7 | 9.1 | 8.5 | 8.1 | ≥ 100 µg/mL | ≥ 12.5 µg/mL | ++ (33-66) |
| CCOC(=O)Cc1ccc(NC(=O)C2=C(COC(C)=O)CSC3C(NC(=O)Cc4cccs4)C(=O)N23)cc1 (stereo not shown) [Example 7, N-(4-carboethoxymethylphenyl)-7-(thienyl-2-acetamido)cephalosporanic acid amide] | – | 6.4 | < 3.0 | 6.6 | 8.9 | 8.3 | 8.8 | ≥ 100 µg/mL | 6.25 µg/mL (≈ 11.2 µM) | +++ (66-100) |
| COC(=O)c1ccc(NC(=O)C2=C(COC(C)=O)CSC3C(NC(=O)Cc4cccs4)C(=O)N23)cc1 (stereo not shown) [Example 2, N-(4-carbomethoxyphenyl)-7-(thienyl-2-acetamido)cephalosporanic acid amide] | – | 6.4 | < 3.0 | 6.7 | 9.1 | 8.6 | 8.1 | ≥ 25 µg/mL | 0.2 µg/mL (≈ 0.378 µM) | ++ (33-66) |
| CC(=O)OCC1=C(C(=O)Nc2ccc(O)cc2)N2C(=O)C(NC(=O)Cc3cccs3)C2SC1 (stereo not shown) [Example 1, N-(4-hydroxyphenyl)-7-(thienyl-2-acetamido)cephalosporanic acid amide] | – | 6.5 | < 3.0 | 6.3 | 8.9 | 8.2 | 8.7 | ≥ 100 µg/mL | ≥ 12.5 µg/mL | +++ (66-100) |
| COC(=O)Cc1ccc(NC(=O)C2=C(COC(C)=O)CSC3C(NC(=O)Cc4cccs4)C(=O)N23)cc1 (stereo not shown) [Example 6, N-(4-carbomethoxymethylphenyl)-7-(thienyl-2-acetamido)cephalosporanic acid amide] | – | 6.8 | < 3.0 | 6.5 | 8.9 | 8.3 | 8.8 | ≥ 100 µg/mL | ≥ 12.5 µg/mL | +++ (66-100) |
| CC(=O)OCC1=C(C(=O)Nc2ccc(CC(=O)O)cc2)N2C(=O)C(NC(=O)Cc3cccs3)C2SC1 (stereo not shown) [Example 5, N-(4-carboxymethylphenyl)-7-(thienyl-2-acetamido)cephalosporanic acid amide] | – | 6.5 | < 3.0 | 6.8 | 9.1 | 8.4 | 8.2 | ≥ 100 µg/mL | 1.56 µg/mL (≈ 2.95 µM) | +++ (66-100) |
